Results published in paper PMC6639853, “Deciphering Direct and Indirect Effects of Neurokinin B and GnRH in the Brain-Pituitary Axis of Tilapia” (Frontiers in Endocrinology, 2019).
“And” between values parts separate entries of the source, which are not always exact repeats. Equal entries are not always repeated. Where two headings read alike, the source gives them in different places. Starred links: 1 amine or outer side, 2 acyl side, 3 side chain; linkers in the order of their positions; H or OH if unused. Non-standard residues stand in square brackets, D forms with d. Residues, ends and D or L forms follow the SMILES beside them. NMeF = CN[C@@H](Cc1ccccc1)C(=O)O; pGlu = O=C1CC[C@@H](C(=O)O)N1; Suc = O=C(CCC(=O)[*:2])[*:1]

What was measured:
tiTac3ra [1] = target: T1, tiTac3ra (Oreochromis niloticus, UniProt A0A075QPN8); conditions: read-out: EC50 tiTac3ra SRE; SRE-Luc reporter (PKC/Ca2+), COS-7 cells, mean ± SEM
Excerpt: (§2) Receptor transactivation assays were generally performed according to Biran et al. ([10]). Briefly, in order to study the signaling pathways of the novel fish NKB and NKF analogs, the entire coding sequence of tiTac3ra (GenBank accession no. KF471674), tiTac3rb (GenBank accession no. KF471675), zfTac3ra (GenBank accession no. JF317292) and zfTac3rb (GenBank accession no. JF317293) were inserted into pcDNA3.1 (Invitrogen). To differentiate between the protein kinase A (PKA) and PKC signal transduction pathways, we used a sensitive luciferase (Luc) reporter gene assay. […] Three micrograms of each construct together with three micrograms of a luciferase reporter plasmid were transiently co-transfected into COS-7 cells. […] EC50 values were calculated from dose response curves by means of computerized non-linear curve fitting on baseline-corrected (control) values using Prism version 6 software (GraphPad).

tiTac3ra [2] = target: T1, tiTac3ra; assay: cell-based; conditions: COS-7 cells, mean ± SEM
Excerpt: as §2

tiTac3rb = tiTac3rb (Oreochromis niloticus, UniProt A0A075QUD7); assay: cell-based; conditions: COS-7 cells, mean ± SEM
Excerpt: as §2

huTAC3R (NK3R) = target: T2, huTAC3R (NK3R) (Homo sapiens, UniProt P29371); assay: CRE-/SRE-Luc receptor transactivation reporter assay in COS-7 cells, human TAC3R; assay type: cell-based; conditions: mean ± SEM
T2 construct: host or cells: COS-7
T2 sequence (P29371 1-465): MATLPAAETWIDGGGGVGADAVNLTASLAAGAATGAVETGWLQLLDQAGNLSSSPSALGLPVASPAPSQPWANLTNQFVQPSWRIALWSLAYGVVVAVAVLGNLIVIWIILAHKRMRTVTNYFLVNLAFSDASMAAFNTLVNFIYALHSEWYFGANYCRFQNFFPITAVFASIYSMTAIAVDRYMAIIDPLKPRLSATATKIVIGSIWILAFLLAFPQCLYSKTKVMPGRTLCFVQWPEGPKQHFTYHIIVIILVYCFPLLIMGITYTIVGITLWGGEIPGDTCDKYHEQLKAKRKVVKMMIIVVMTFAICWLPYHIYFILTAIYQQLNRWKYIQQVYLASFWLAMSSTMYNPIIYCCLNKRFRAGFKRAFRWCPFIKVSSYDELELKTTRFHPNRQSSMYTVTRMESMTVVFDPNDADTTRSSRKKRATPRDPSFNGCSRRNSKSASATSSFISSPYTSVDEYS
Excerpt: (§1) Receptor transactivation assays were generally performed according to Biran et al. ([10]). Briefly, in order to study the signaling pathways of the novel fish NKB and NKF analogs, the entire coding sequence of tiTac3ra (GenBank accession no. KF471674), tiTac3rb (GenBank accession no. KF471675), zfTac3ra (GenBank accession no. JF317292) and zfTac3rb (GenBank accession no. JF317293) were inserted into pcDNA3.1 (Invitrogen). To differentiate between the protein kinase A (PKA) and PKC signal transduction pathways, we used a sensitive luciferase (Luc) reporter gene assay. […] The cDNA clone for human TAC3R was obtained from the Missouri S&T cDNA Resource Center (www.cdna.org). Three micrograms of each construct together with three micrograms of a luciferase reporter plasmid were transiently co-transfected into COS-7 cells. […] EC50 values were calculated from dose response curves by means of computerized non-linear curve fitting on baseline-corrected (control) values using Prism version 6 software (GraphPad).

zfTac3ra = target: T3, zfTac3ra (Danio rerio, UniProt H6A6A7); assay: CRE-/SRE-Luc receptor transactivation reporter assay in COS-7 cells, zebrafish Tac3ra; assay type: cell-based; conditions: mean ± SEM
T3 sequence (H6A6A7 1-399): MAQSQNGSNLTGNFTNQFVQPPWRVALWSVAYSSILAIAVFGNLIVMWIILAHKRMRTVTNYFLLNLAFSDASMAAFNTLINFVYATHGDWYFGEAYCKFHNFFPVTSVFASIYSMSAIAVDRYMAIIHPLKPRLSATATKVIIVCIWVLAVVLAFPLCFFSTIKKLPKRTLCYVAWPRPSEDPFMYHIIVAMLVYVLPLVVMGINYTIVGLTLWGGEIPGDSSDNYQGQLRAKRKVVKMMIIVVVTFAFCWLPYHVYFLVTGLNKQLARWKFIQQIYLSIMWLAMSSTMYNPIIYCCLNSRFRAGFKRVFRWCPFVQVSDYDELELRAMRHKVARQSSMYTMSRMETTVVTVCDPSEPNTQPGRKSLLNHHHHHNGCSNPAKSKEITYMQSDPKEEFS
Excerpt: as §1

zfTac3rb = target: T4, zfTac3rb (Danio rerio, UniProt F1R3V0); assay: CRE-/SRE-Luc receptor transactivation reporter assay in COS-7 cells, zebrafish Tac3rb; assay type: cell-based; conditions: mean ± SEM
T4 sequence (F1R3V0 1-395): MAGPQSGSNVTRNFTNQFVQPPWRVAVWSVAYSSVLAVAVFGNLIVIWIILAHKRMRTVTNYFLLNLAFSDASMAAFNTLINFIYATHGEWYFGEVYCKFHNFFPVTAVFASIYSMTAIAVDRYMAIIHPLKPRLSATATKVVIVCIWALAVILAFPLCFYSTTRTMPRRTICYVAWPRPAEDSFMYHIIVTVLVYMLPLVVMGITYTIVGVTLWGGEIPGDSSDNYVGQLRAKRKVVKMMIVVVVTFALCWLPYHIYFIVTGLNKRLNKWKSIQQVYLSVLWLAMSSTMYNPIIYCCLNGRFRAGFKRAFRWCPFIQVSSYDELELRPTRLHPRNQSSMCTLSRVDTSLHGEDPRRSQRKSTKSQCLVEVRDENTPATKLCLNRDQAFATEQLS
Excerpt: as §1

female tilapia = assay: In vivo effect on GH, FSH and LH plasma levels (ELISA) after IP injection; design: species or system Nile tilapia (O. niloticus); conditions: peptides/analogs 100 μg/kg BW
Experimental: Adult female tilapia (BW 89.29 ± 32.93 g) were injected IP with saline, sGnRH analog ([…]; 10 μg/kg BW; [[…],[…]-Net]-mammalian GnRH; Bachem), tiNKB, tiNKF, or their analogs at 100 μg/kg BW (n = 8 fish per group). The fish were bled from the caudal blood vessels into heparinized syringes 1, 2, 4, 8, and 24 h after injection and blood was centrifuged (3,200 rpm for 30 min at 4°C) to obtain plasma samples, which were stored at -20°C until assayed. This time course is according to standard protocols used previously ([28], [29]) to test the effect of GnRH and other hypothalamic neuropeptides on circulating levels of LH, FSH, and GH in tilapia. Blood samples were collected from the caudal vasculature. Three independent experiments were carried out for the in vivo studies. Levels of LH, FSH, and GH in the plasma were measured by specific competitive ELISAs developed for tilapia ([30], [31]) based on recombinant ([…] or rtiGH. Primary antisera was produced against […]β, or rtGH ([31]), and […]βα ([28]) or rtGH was used for generating the standard curves.

female tilapia pituitary = assay: In vivo effect on pituitary gh, fsh and lh mRNA expression (real-time PCR); design: species or system Nile tilapia (O. niloticus); conditions: 24 h post IP injection, 100 μg/kg BW
Experimental: Adult female tilapia (BW 89.29 ± 32.93 g) were injected IP with saline, sGnRH analog ([…]; 10 μg/kg BW; [[…],[…]-Net]-mammalian GnRH; Bachem), tiNKB, tiNKF, or their analogs at 100 μg/kg BW (n = 8 fish per group). The fish were bled from the caudal blood vessels into heparinized syringes 1, 2, 4, 8, and 24 h after injection and blood was centrifuged (3,200 rpm for 30 min at 4°C) to obtain plasma samples, which were stored at -20°C until assayed. This time course is according to standard protocols used previously ([28], [29]) to test the effect of GnRH and other hypothalamic neuropeptides on circulating levels of LH, FSH, and GH in tilapia. Blood samples were collected from the caudal vasculature. Three independent experiments were carried out for the in vivo studies. Pituitaries and three parts of the brain [the olfactory bulbs and telencephalon (front brain), the optic tectum and diencephalon (mid brain), and the cerebellum (hind brain)] were harvested at the end of each in vivo experiment, snap-frozen in liquid nitrogen, and stored at -80°C until extraction. Total RNA was extracted by phenol-chloroform using TRIzol reagent (Invitrogen) and precipitated with ethanol, and 1 μg was used as a template for cDNA synthesis using Verso cDNA kit (Thermo Scientific, Waltham, MA). Real-time PCR analysis was performed according to Biran et al. ([10], [20]). The specificity of the amplification was tested at the end of the PCR by melting-curve analysis and sequencing the PCR products.

[3] = EC50 tiTac3ra CRE, CRE-Luc reporter (PKA/cAMP)
[4] = EC50 tiTac3rb CRE, CRE-Luc reporter (PKA/cAMP)
[5] = EC50 tiTac3rb SRE, SRE-Luc reporter (PKC/Ca2+)
[6] = SRE-Luc reporter (PKC/Ca2+), read-out: EC50 huTAC3R (NK3R) SRE
[7] = EC50 tiTac3ra SRE, SRE-Luc reporter (PKC/Ca2+)

T1 sequence (A0A075QPN8 1-415): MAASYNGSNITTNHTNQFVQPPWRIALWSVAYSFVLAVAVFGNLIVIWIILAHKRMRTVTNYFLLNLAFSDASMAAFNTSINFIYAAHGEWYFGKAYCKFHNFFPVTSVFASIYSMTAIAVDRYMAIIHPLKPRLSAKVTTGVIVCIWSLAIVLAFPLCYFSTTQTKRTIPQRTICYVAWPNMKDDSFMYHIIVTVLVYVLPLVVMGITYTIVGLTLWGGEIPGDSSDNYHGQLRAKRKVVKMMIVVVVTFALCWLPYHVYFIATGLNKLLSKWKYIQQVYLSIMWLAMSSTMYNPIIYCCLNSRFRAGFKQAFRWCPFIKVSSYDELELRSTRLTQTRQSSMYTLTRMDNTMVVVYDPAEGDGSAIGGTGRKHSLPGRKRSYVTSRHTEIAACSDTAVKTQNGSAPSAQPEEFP
tiTac3rb, sequence (A0A075QUD7 1-361): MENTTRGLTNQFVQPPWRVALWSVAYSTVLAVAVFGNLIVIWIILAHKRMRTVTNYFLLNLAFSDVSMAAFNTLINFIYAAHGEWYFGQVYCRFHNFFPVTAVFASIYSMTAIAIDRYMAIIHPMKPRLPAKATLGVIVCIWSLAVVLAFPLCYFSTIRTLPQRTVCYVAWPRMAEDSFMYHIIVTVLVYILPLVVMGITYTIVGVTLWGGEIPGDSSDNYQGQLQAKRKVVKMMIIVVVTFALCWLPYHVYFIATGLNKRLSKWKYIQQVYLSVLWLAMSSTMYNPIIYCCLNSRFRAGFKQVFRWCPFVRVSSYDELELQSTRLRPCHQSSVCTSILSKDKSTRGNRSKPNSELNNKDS

SMILES | EC50 (tiTac3ra [1]) | EC50 (tiTac3ra [2]; [3]) | EC50 (tiTac3rb; [4]) | EC50 (tiTac3rb; [5]) | EC50 (huTAC3R (NK3R); [6]) | EC50 (zfTac3ra; CRE-Luc reporter (PKA/cAMP), read-out: EC50 zfTac3ra CRE) | EC50 (zfTac3ra; SRE-Luc reporter (PKC/Ca2+), read-out: EC50 zfTac3ra SRE) | EC50 (zfTac3rb; CRE-Luc reporter (PKA/cAMP), read-out: EC50 zfTac3rb CRE) | EC50 (zfTac3rb; SRE-Luc reporter (PKC/Ca2+), read-out: EC50 zfTac3rb SRE) | time post-injection at which plasma FSH was first increased (female tilapia) | time post-injection at which plasma LH was first increased (female tilapia; sGnRHa 10 μg/kg BW) | GH mRNA expression in pituitary relative to control (female tilapia pituitary) | LHβ mRNA expression in pituitary relative to control (female tilapia pituitary) | EC50 (tiTac3ra [2]; [7]) | EC50 (huTAC3R (NK3R); CRE-Luc reporter (PKA/cAMP), read-out: EC50 huTAC3R (NK3R) CRE) | time post-injection at which plasma GH was first increased (female tilapia) | duration of increased plasma LH post-injection (female tilapia; sGnRHa 10 μg/kg BW) | FSHβ mRNA expression in pituitary relative to control (female tilapia pituitary)
CSCC[C@H](NC(=O)[C@H](CC(C)C)NC(=O)CNC(=O)[C@H](Cc1ccccc1)N(C)C(=O)[C@H](Cc1ccccc1)NC(=O)[C@H](CC(=O)O)NC(=O)CCC(=O)O)C(N)=O [Senktide] (Suc-DF[NMeF]GLM-NH2) | 128 ± 35 nM | 14.1 ± 0.61 nM | 3541 ± 1.47 nM | 50.16 ± 0.17 nM |  |  |  |  |  |  |  |  |  |  |  |  |  | 
CSCC[C@H](NC(=O)[C@H](CC(C)C)NC(=O)CNC(=O)[C@H](C(C)C)N(C)C(=O)[C@H](Cc1ccccc1)NC(=O)[C@H](CO)NC(=O)[C@H](CC(=O)O)NC(=O)CCC(=O)O)C(N)=O [NKF analog, Succ-Asp-Ser-Phe-N(Me)Val-Gly-Leu-Met-NH2] |  | 2.57 ± 0.33 nM | 160.6 ± 0.42 nM | 74.89 ± 0.66 nM | 43.2 ± 1.06 nM | 0.47 nM and 0.474 nM | 1.15 ± 0.4 nM | 2.69 ± 0.38 nM | 25.74 ± 0.24 nM | 2 h | 1 h | increased | increased | 1.73 ± 0.46 nM |  |  |  | 
CC[C@H](C)[C@H](NC(=O)[C@H](Cc1ccccc1)NC(=O)[C@@H](NC(=O)[C@H](CC(=O)O)NC(=O)[C@H](CC(=O)O)NC(=O)[C@H](CCSC)NC(=O)[C@@H]1CCC(=O)N1)[C@@H](C)CC)C(=O)NCC(=O)N[C@@H](CC(C)C)C(=O)N[C@@H](CCSC)C(N)=O [tiNKB] ([pGlu]MDDIFIGLM-NH2) |  | 0.8 nM and 0.81 nM | 26.5 ± 0.27 nM |  | 0.02 nM |  |  |  |  | 2 h | 2 h | increased | increased | 7.41 ± 0.44 nM | 3.38 ± 0.42 nM | 1 h | up to 4 h | increased
